The conditions of data set [1]: Crystal; DTA.
A short description of data set [2]: Molar enthalpy of transition or fusion. Conditions: Crystal; DSC.

The structures appear in SMILES notation. Numbers after ± are expanded uncertainties.

Regarding `CCCCCCCCCCCC(=O)O` [dodecanoic acid], the Normal melting temperature in data set [1] is 42.70 ± 0.7 °C. The “Molar enthalpy of transition or fusion” value in data set [2] turned out to be 8.43 ± 0.234 kcal/mol.

The values above are taken from the NIST ThermoML archive (doi:10.1016/j.tca.2017.12.019).
